Experiments:
[1] = molecular target: Sodium-dependent noradrenaline transporter (Homo sapiens, UniProt P23975); assay: DRUGMATRIX: Norepinephrine Transporter radioligand binding (ligand: [125I] RTI-55); assay type: cell membranes, MDCK, Membrane; conditions: Not Active = under 50% inhibition at 10 µM
Cytochrome P450 2E1 = Cytochrome P450 2E1 (Homo sapiens, UniProt P05181); conditions: bti-tn-5b1-4; further: in other assays of this panel Not Active means under 50% inhibition at 10 µM
[2] = molecular target: T1, Alpha-1B adrenergic receptor (Rattus norvegicus, UniProt P15823); assay: DRUGMATRIX: Alpha-1B adrenergic receptor radioligand binding (ligand: prazosin); assay type: cell membranes, Wistar, Liver, Membrane; conditions: Not Active = under 50% inhibition at 10 µM
T1 sequence (P15823 whole entry): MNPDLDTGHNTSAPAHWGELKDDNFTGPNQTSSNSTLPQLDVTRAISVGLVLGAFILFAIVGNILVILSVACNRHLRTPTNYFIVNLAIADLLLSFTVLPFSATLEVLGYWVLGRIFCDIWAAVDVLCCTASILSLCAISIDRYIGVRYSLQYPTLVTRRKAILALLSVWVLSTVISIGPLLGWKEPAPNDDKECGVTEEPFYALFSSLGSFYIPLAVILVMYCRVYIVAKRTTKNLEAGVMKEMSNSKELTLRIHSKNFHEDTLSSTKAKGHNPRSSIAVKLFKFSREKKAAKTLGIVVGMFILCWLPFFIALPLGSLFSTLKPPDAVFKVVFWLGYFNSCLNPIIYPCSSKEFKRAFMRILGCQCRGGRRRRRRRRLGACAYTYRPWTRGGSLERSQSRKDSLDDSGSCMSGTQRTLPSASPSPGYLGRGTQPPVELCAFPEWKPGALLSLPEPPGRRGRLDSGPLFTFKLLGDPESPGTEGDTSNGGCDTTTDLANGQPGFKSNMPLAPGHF

Glucocorticoid receptor = molecular target: T2, Glucocorticoid receptor (Homo sapiens, UniProt P04150); conditions: hela s3; further: in other assays of this panel Not Active means under 50% inhibition at 10 µM
T2 sequence (P04150 whole entry): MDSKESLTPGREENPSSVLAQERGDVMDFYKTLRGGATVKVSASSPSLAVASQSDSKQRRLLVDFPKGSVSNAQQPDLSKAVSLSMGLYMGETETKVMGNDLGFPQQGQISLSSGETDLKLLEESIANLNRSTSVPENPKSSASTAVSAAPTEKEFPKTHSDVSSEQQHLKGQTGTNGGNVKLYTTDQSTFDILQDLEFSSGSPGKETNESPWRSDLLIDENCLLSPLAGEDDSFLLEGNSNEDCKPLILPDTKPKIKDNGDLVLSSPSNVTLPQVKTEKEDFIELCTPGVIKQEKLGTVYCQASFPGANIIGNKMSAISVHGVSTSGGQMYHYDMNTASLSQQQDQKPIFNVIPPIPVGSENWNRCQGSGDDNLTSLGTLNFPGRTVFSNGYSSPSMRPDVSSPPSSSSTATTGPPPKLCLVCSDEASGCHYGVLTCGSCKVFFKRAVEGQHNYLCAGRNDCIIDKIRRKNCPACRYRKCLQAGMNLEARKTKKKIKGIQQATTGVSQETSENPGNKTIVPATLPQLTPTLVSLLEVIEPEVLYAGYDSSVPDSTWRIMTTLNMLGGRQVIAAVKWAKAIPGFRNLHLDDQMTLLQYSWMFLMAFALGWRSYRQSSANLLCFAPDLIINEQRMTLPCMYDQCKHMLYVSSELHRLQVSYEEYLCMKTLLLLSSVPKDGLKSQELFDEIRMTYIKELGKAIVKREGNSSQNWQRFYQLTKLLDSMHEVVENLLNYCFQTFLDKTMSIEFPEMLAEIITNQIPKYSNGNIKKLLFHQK

[3] = molecular target: Kappa-type opioid receptor (Homo sapiens, UniProt P41145); assay: DRUGMATRIX: Opiate kappa (OP2, KOP) radioligand binding (ligand: [3H] Diprenorphine); assay type: cell membranes, HEK293, Membrane; conditions: hek293; Not Active = under 50% inhibition at 10 µM
Progesterone receptor = molecular target: T3, Progesterone receptor (Bos taurus, UniProt Q690N0); assay: DRUGMATRIX: Progesterone radioligand binding (ligand: [3H] R-5020); assay type: tissue-based, Uterus; conditions: Not Active = under 50% inhibition at 10 µM
T3 sequence (Q690N0 whole entry): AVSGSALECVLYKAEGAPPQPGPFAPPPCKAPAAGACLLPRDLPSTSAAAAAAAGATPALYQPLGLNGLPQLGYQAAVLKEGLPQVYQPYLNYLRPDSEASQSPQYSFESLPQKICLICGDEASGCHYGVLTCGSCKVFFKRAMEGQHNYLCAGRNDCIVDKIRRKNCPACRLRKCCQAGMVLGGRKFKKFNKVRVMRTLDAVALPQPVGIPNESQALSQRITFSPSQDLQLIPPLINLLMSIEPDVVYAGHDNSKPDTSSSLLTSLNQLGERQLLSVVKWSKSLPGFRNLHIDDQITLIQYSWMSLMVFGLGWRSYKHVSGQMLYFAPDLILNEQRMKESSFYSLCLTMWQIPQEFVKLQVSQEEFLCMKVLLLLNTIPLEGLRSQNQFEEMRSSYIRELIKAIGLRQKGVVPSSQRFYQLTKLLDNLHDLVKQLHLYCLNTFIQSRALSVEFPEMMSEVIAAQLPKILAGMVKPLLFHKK

Sodium-dependent noradrenaline transporter, sequence (P23975 whole entry): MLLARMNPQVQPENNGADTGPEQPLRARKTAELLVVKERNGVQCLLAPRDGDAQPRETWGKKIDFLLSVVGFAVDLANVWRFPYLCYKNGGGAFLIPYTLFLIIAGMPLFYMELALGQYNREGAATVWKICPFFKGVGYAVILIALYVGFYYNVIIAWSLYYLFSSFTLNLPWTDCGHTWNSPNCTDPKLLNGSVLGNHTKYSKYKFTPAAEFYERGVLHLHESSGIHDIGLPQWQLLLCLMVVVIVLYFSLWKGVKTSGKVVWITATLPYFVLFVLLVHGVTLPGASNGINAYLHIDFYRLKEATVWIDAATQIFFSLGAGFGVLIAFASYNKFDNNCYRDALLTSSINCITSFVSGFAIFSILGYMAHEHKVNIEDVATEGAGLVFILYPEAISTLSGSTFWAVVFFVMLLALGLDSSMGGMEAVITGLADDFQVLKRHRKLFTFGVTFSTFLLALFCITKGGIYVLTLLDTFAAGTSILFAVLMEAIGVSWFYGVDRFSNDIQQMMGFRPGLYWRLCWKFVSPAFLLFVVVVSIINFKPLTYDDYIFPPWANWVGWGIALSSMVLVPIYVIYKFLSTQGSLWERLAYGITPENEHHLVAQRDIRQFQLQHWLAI
Cytochrome P450 2E1, sequence (P05181 whole entry): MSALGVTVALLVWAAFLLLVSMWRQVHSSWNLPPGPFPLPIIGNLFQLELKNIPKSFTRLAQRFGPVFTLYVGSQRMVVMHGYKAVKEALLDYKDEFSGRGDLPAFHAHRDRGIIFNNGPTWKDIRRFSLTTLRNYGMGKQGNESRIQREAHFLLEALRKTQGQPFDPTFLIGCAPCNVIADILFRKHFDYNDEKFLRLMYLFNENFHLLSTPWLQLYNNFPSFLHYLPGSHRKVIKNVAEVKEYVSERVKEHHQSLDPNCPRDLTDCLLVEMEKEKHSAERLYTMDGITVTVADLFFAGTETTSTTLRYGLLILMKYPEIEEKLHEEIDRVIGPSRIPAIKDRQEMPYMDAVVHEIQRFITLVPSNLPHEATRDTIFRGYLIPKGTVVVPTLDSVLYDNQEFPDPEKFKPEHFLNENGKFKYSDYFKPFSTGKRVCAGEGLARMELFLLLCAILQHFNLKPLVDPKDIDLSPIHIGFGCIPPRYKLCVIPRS
Kappa-type opioid receptor, sequence (P41145 whole entry): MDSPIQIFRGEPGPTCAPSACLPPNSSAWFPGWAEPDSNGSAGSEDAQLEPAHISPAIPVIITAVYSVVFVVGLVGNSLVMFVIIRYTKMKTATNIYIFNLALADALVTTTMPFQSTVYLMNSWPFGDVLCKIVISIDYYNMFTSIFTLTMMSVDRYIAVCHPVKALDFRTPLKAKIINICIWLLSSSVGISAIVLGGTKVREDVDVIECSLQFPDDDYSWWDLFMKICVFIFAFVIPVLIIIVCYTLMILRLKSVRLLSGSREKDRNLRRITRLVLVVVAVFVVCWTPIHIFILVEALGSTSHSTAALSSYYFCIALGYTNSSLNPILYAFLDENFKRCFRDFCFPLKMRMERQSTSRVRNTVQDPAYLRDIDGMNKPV

CCOC(=O)C1=C(C)NC(C)=C(C(=O)OCC)C1c1ccccc1/C=C/C(=O)OC(C)(C)C [LACIDIPINE]
IC50 ([1]; read-out: IC50): 5.73 µM
Ki ([1]; read-out: Ki): 5.69 µM
IC50 (Cytochrome P450 2E1): Not Active
Ki (Cytochrome P450 2E1): Not Active
IC50 [2]: Not Active
IC50 (Glucocorticoid receptor): Not Active
IC50 [3]: Not Active
IC50 (Progesterone receptor): Not Active

CC(C)(C)NC[C@H](O)COc1cccc2c1CCCC2=O [LEVOBUNOLOL]
IC50 ([1]; mdck): Not Active
IC50 (Cytochrome P450 2E1): Not Active
Ki (Cytochrome P450 2E1): Not Active
IC50 [2]: Not Active
IC50 (Glucocorticoid receptor): Not Active
IC50 [3]: Not Active
IC50 (Progesterone receptor): Not Active

Cc1cnc(NC(=O)C2=C(O)c3ccccc3S(=O)(=O)N2C)s1 [MELOXICAM]
IC50 ([1]; mdck): Not Active
IC50 (Cytochrome P450 2E1): Not Active
Ki (Cytochrome P450 2E1): Not Active
IC50 [2]: Not Active
IC50 (Glucocorticoid receptor): Not Active
IC50 [3]: Not Active
IC50 (Progesterone receptor): Not Active

CO[C@@]12[C@H](COC(N)=O)C3=C(C(=O)C(C)=C(N)C3=O)N1C[C@@H]1N[C@@H]12 [MITOMYCIN]
IC50 ([1]; mdck): Not Active
IC50 (Cytochrome P450 2E1): Not Active
Ki (Cytochrome P450 2E1): Not Active
IC50 [2]: Not Active
IC50 (Glucocorticoid receptor): Not Active
IC50 [3]: Not Active
IC50 (Progesterone receptor): Not Active

Cc1ccc(Cl)c(Nc2ccccc2C(=O)O)c1Cl [MECLOFENAMIC ACID]
IC50 ([1]; mdck): Not Active
IC50 (Cytochrome P450 2E1): Not Active
Ki (Cytochrome P450 2E1): Not Active
IC50 [2]: Not Active
IC50 (Glucocorticoid receptor): Not Active
IC50 [3]: Not Active
IC50 (Progesterone receptor): Not Active

O=C(O)c1cc(/N=N/c2ccc(S(=O)(=O)Nc3ccccn3)cc2)ccc1O [SULFASALAZINE]
IC50 ([1]; mdck): Not Active
IC50 (Cytochrome P450 2E1): Not Active
Ki (Cytochrome P450 2E1): Not Active
IC50 [2]: Not Active
IC50 (Glucocorticoid receptor): Not Active
IC50 [3]: Not Active
IC50 (Progesterone receptor): Not Active

CC[C@H](C)C(=O)O[C@H]1CCC=C2C=C[C@H](C)[C@H](CC[C@@H]3C[C@@H](O)CC(=O)O3)[C@H]21 [MEVASTATIN]
IC50 ([1]; mdck): Not Active
IC50 (Cytochrome P450 2E1): Not Active
Ki (Cytochrome P450 2E1): Not Active
IC50 [2]: Not Active
IC50 (Glucocorticoid receptor): Not Active
IC50 [3]: Not Active
IC50 (Progesterone receptor): Not Active

CN1C(=O)OC(C)(C)C1=O [TRIMETHADIONE]
IC50 ([1]; mdck): Not Active
IC50 (Cytochrome P450 2E1): Not Active
Ki (Cytochrome P450 2E1): Not Active
IC50 [2]: Not Active
IC50 (Glucocorticoid receptor): Not Active
IC50 [3]: Not Active
IC50 (Progesterone receptor): Not Active

CC[C@H](C)[C@@H](CO[C@@H](Cc1ccccc1)C(=O)N[C@@H](CCS(C)(=O)=O)C(=O)OC(C)C)NC[C@@H](N)CS
IC50 ([1]; mdck): Not Active
IC50 (Cytochrome P450 2E1): Not Active
Ki (Cytochrome P450 2E1): Not Active
IC50 [2]: Not Active
IC50 (Glucocorticoid receptor): Not Active
IC50 [3]: Not Active
IC50 (Progesterone receptor): Not Active

CC1=C(/C=C/C(C)=C/C=C/C(C)=C/C(=O)O)C(C)(C)CCC1 [TRETINOIN]
IC50 ([1]; mdck): Not Active
IC50 (Cytochrome P450 2E1): Not Active
Ki (Cytochrome P450 2E1): Not Active
IC50 [2]: Not Active
IC50 (Glucocorticoid receptor): Not Active
IC50 [3]: Not Active
IC50 (Progesterone receptor): Not Active

Reference: ChEMBL document CHEMBL1909046, “DrugMatrix in vitro pharmacology data”
